US20240025884A1 (Dong-A ST Co., Ltd., priority 2022, published 2024)

Each molecule was assayed against GCN2 (Homo sapiens (Human), UniProt Q9P2K8) (assay: GCN2 Biochemical Assay (TR-FRET, GFP-eIF2S1 substrate phosphorylation)). Conditions: read-out: IC50 (GCN2 Inhibitory Activity).
How it was run: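 TR-FRET readout (Ex 340, Em 490/520 nm) after 2–3 h with Tb-labelled phospho-eIF2S1 antibody in stop mix, following a 70 min room-temperature kinase step. Reaction: in-house GCN2, GFP-eIF2S1, ATP, tRNA in Tris pH 7.5 (2× stocks 1.6 nM, 50 nM, 0.2 mM); compounds tested at 10 concentrations, with a phospho-substrate artifact counter-plate.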

Sequence of GCN2 (Q9P2K8 whole entry): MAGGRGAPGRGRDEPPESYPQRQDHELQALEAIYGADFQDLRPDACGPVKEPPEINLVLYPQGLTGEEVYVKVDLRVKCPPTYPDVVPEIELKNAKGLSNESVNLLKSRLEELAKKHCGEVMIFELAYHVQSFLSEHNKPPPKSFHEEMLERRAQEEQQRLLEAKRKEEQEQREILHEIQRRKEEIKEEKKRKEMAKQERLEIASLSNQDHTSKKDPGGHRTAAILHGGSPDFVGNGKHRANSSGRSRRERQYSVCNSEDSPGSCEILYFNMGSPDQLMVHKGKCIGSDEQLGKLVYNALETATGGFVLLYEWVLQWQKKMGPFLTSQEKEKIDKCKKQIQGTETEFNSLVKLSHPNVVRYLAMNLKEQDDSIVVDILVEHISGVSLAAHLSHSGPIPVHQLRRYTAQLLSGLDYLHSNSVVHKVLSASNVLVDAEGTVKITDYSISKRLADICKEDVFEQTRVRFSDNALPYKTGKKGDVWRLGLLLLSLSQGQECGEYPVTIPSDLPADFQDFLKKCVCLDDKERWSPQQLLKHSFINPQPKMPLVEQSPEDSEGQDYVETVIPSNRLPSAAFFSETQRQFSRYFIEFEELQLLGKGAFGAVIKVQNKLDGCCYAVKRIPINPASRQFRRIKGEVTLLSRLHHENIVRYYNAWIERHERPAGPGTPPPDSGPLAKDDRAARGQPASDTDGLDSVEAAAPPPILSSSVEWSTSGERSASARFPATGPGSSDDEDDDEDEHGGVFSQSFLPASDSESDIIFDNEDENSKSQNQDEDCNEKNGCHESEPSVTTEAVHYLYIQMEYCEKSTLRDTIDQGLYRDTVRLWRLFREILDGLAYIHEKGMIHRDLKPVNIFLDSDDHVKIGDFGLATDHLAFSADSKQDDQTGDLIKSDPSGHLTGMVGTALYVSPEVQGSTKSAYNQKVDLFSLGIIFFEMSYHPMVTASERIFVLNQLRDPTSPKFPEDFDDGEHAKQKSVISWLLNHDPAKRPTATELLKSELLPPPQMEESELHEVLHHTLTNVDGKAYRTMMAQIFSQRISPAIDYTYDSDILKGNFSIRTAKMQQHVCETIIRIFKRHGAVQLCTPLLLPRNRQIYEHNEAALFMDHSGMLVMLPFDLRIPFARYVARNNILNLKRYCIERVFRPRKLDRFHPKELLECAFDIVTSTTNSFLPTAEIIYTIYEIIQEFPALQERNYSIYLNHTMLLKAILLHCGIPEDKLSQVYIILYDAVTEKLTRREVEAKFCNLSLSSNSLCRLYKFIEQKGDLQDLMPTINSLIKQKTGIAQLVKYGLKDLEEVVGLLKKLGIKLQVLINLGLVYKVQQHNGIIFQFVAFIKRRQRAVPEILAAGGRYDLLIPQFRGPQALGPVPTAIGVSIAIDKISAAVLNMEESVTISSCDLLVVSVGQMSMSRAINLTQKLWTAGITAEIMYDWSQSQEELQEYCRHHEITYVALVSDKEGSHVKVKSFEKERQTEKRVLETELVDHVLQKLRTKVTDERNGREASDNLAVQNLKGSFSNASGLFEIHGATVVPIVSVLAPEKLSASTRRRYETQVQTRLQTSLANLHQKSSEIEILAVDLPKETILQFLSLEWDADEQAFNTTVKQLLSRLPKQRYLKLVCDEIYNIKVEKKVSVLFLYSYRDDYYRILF

| Structure (SMILES) | IC50 [nM] |
| --- | --- |
| Cc1cnc(Nc2cc(C)n(C)n2)nc1-c1c[nH]c2c(NC(=O)CN3CC[C@H](Oc4ccnc(N(C)Cc5ccccc5)n4)C3)cccc12 [Example 221, (S)-2-(3-((2-(benzyl(methyl)amino)pyrimidin-4-yl)oxy)pyrrolidin-1-yl)-N-(3-(2-((1,5-dimethyl-1H-pyrazol-3-yl)amino)-5-methylpyrimidin-4-yl)-1H-indol-7-yl)acetamide] | 100 to 1000 |
| Cc1cnc(Nc2cc(C)n(C)n2)nc1-c1c[nH]c2c(NC(=O)CN3CC[C@H](Oc4ccnc(N5CCCC5)n4)C3)cccc12 [Example 222, (S)-N-(3-(2-((1,5-dimethyl-1H-pyrazol-3-yl)amino)-5-methylpyrimidin-4-yl)-1H-indol-7-yl)-2-(3-((2-(pyrrolidin-t-yl)pyrimidin-4-yl)oxy)pyrrolidin-1-yl)acetamide] | 10 to 100 |
| Cc1cnc(Nc2cc(C)n(C)n2)nc1-c1c[nH]c2c(NC(=O)CN3CC[C@H](Oc4ccnc(N5CCCCC5)n4)C3)cccc12 [Example 223, (S)-N-(3-(2-((1,5-dimethyl-1H-pyrazol-3-yl)amino)-5-methylpyrimidin-4-yl)-1H-indol-7-yl)-2-(3-((2-(piperidin-1-yl)pyrimidin-4-yl)oxy)pyrrolidin-1-yl)acetamide] | 10 to 100 |
| Cc1cnc(Nc2cc(C)n(C)n2)nc1-c1c[nH]c2c(NC(=O)CN3CC[C@H](Oc4ccnc(N5CCOCC5)n4)C3)cccc12 [Example 224, (S)-N-(3-(2-((1,5-dimethyl-1H-pyrazol-3-yl)amino)-5-methylpyrimidin-4-yl)-1H-indol-7-yl)-2-(3-((2-morpholinopyrimidin-4-yl)oxy)pyrrolidin-1-yl)acetamide] | < 10 |
| Cc1cnc(Nc2cc(C)n(C)n2)nc1-c1c[nH]c2c(NC(=O)CN3CC[C@H](Oc4ccnc(N5CCN(C)CC5)n4)C3)cccc12 [Example 225, (S)-N-(3-(2-((1,5-dimethyl-1H-pyrazol-3-yl)amino)-5-methylpyrimidin-4-yl)-1H-indol-7-yl)-2-(3-((2-(4-methylpiperazin-1-yl)pyrimidin-4-yl)oxy)pyrrolidin-1-yl)acetamide] | < 10 |
| Cc1cnc(Nc2cc(C)n(C)n2)nc1-c1c[nH]c2c(NC(=O)CN3CC[C@H](Oc4nc(N)ncc4F)C3)cccc12 [Example 226, (S)-2-(3-((2-amino-5-fluoropyrimidin-4-yl)oxy)pyrrolidin-1-yl)-N-(3-(2-((1,5-dimethyl-1H-pyrazol-3-yl)amino)-5-methylpyrimidin-4-yl)-1H-indol-7-yl)acetamide] | < 10 |
| Cc1cnc(Nc2cc(C)n(C)n2)nc1-c1c[nH]c2c(NC(=O)CN3CC[C@H](Oc4nc(NC5CC5)ncc4F)C3)cccc12 [Example 227, (S)-2-(3-((2-(cyclopropylamino)-5-fluoropyrimidin-4-yl)oxy)pyrrolidin-1-yl)-N-(3-(2-((1,5-dimethyl-1H-pyrazol-3-yl)amino)-5-methylpyrimidin-4-yl)-1H-indol-7-yl)acetamide] | < 10 |
| Cc1cnc(Nc2cc(C)n(C)n2)nc1-c1c[nH]c2c(NC(=O)CN3CC[C@H](Oc4nc(NC5CCCCC5)ncc4F)C3)cccc12 [Example 228, (S)-2-(3-((2-(cyclohexylamino)-5-fluoropyrimidin-4-yl)oxy)pyrrolidin-1-yl)-N-(3-(2-((1,5-dimethyl-1H-pyrazol-3-yl)amino)-5-methylpyrimidin-4-yl)-1H-indol-7-yl)acetamide] | 10 to 100 |
| Cc1cnc(Nc2cc(C)n(C)n2)nc1-c1c[nH]c2c(NC(=O)CN3CC[C@H](Oc4nc(NCC5CC5)ncc4F)C3)cccc12 [Example 229, (S)-2-(3-((2-((cyclopropylmethyl)amino)-5-fluoropyrimidin-4-yl)oxy)pyrrolidin-1-yl)-N-(3-(2-((1,5-dimethyl-1H-pyrazol-3-yl)amino)-5-methylpyrimidin-4-yl)-1H-indol-7-yl)acetamide] | 10 to 100 |
| Cc1cnc(Nc2cc(C)n(C)n2)nc1-c1c[nH]c2c(NC(=O)CN3CC[C@H](Oc4nc(NCc5ccccc5)ncc4F)C3)cccc12 [Example 230, (S)-2-(3-((2-(benzylamino)-5-fluoropyrimidin-4-yl)oxy)pyrrolidin-1-yl)-N-(3-(2-((1,5-dimethyl-1H-pyrazol-3-yl)amino)-5-methylpyrimidin-4-yl)-1H-indol-7-yl)acetamide] | 10 to 100 |
| Cc1cnc(Nc2cc(C)n(C)n2)nc1-c1c[nH]c2c(NC(=O)CN3CC[C@H](Oc4nc(N(C)C)ncc4F)C3)cccc12 [Example 231, (S)-N-(3-(2-((1,5-dimethyl-1H-pyrazol-3-yl)amino)-5-methylpyrimidin-4-yl)-1H-indol-7-yl)-2-(3-((2-(dimethylamino)-5-fluoropyrimidin-4-yl)oxy)pyrrolidin-1-yl)acetamide] | 10 to 100 |
| Cc1cnc(Nc2cc(C)n(C)n2)nc1-c1c[nH]c2c(NC(=O)CN3CC[C@H](Oc4nc(N5CCOCC5)ncc4F)C3)cccc12 [Example 232, (S)-N-(3-(2-((1,5-dimethyl-1H-pyrazol-3-yl)amino)-5-methylpyrimidin-4-yl)-1H-indol-7-yl)-2-(3-((5-fluoro-2-morpholinopyrimidin-4-yl)oxy)pyrrolidin-1-yl)acetamide] | < 10 |
| Cc1cnc(Nc2cc(C)n(C)n2)nc1-c1c[nH]c2c(NC(=O)CN3CC[C@H](Oc4nc(N5CCN(C)CC5)ncc4F)C3)cccc12 [Example 233, (S)-N-(3-(2-((1,5-dimethyl-1H-pyrazol-3-yl)amino)-5-methylpyrimidin-4-yl)-1H-indol-7-yl)-2-(3-((5-fluoro-2-(4-methylpiperazin-1-yl)pyrimidin-4-yl)oxy)pyrrolidin-1-yl)acetamide] | < 10 |
| Cc1cnc(Nc2cc(C)n(C)n2)nc1-c1c[nH]c2c(NC(=O)CN3CC[C@H](Oc4cc(F)nc(NC5CC5)n4)C3)cccc12 [Example 234, (S)-2-(3-((2-(cyclopropylamino)-6-fluoropyrimidin-4-yl)oxy)pyrrolidin-1-yl)-N-(3-(2-((1,5-dimethyl-1H-pyrazol-3-yl)amino)-5-methylpyrimidin-4-yl)-1H-indol-7-yl)acetamide] | < 10 |
| Cc1cnc(NC2CC2)nc1O[C@H]1CCN(CC(=O)Nc2cccc3c(-c4nc(Nc5cc(C)n(C)n5)ncc4C)c[nH]c23)C1 [Example 235, (S)-2-(3-((2-(cyclopropylamino)-5-methylpyrimidin-4-yl)oxy)pyrrolidin-1-yl)-N-(3-(2-((1,5-dimethyl-1H-pyrazol-3-yl)amino)-5-methylpyrimidin-4-yl)-1H-indol-7-yl)acetamide] | 10 to 100 |
| Cc1cc(O[C@H]2CCN(CC(=O)Nc3cccc4c(-c5nc(Nc6cc(C)n(C)n6)ncc5C)c[nH]c34)C2)nc(NC2CC2)n1 [Example 236, (S)-2-(3-((2-(cyclopropylamino)-6-methylpyrimidin-4-yl)oxy)pyrrolidin-1-yl)-N-(3-(2-((1,5-dimethyl-1H-pyrazol-3-yl)amino)-5-methylpyrimidin-4-yl)-1H-indol-7-yl)acetamide] | < 10 |
| Cc1cnc(Nc2cc(C)n(C)n2)nc1-c1c[nH]c2c(NC(=O)CN3CC[C@H](Oc4cc(C(F)(F)F)nc(NC5CC5)n4)C3)cccc12 [Example 237, (S)-2-(3-((2-(cyclopropylamino)-6-(trifluoromethyl)pyrimidin-4-yl)oxy)pyrrolidin-1-yl)-N-(3-(2-((1,5-dimethyl-1H-pyrazol-3-yl)amino)-5-methylpyrimidin-4-yl)-1H-indol-7-yl)acetamide] | 10 to 100 |
| COc1cc(O[C@H]2CCN(CC(=O)Nc3cccc4c(-c5nc(Nc6cc(C)n(C)n6)ncc5C)c[nH]c34)C2)nc(NC2CC2)n1 [Example 238, (S)-2-(3-((2-(cyclopropylamino)-6-methoxypyrimidin-4-yl)oxy)pyrrolidin-1-yl)-N-(3-(2-((1,5-dimethyl-1H-pyrazol-3-yl)amino)-5-methylpyrimidin-4-yl)-1H-indol-7-yl)acetamide] | < 10 |
| Cc1cnc(Nc2cc(C)n(C)n2)nc1-c1c[nH]c2c(NC(=O)CN3CC[C@H](Oc4cnc(NCCN(C)C)nc4)C3)cccc12 [Example 239, (S)-N-(3-(2-((1,5-dimethyl-1H-pyrazol-3-yl)amino)-5-methylpyrimidin-4-yl)-1H-indol-7-yl)-2-(3-((2-((2-(dimethylamino)ethyl)amino)pyrimidin-5-yl)oxy)pyrrolidin-1-yl)acetamide] | 10 to 100 |
| Cc1cnc(Nc2cc(C)n(C)n2)nc1-c1c[nH]c2c(NC(=O)CN3CC[C@H](Oc4cnc(N(C)C)nc4)C3)cccc12 [Example 240, (S)-N-(3-(2-((1,5-dimethyl-1H-pyrazol-3-yl)amino)-5-methylpyrimidin-4-yl)-1H-indol-7-yl)-2-(3-((2-(dimethylamino)pyrimidin-5-yl)oxy)pyrrolidin-1-yl)acetamide] | 10 to 100 |
| Cc1cnc(Nc2cc(C)n(C)n2)nc1-c1c[nH]c2c(NC(=O)CN3CC[C@H](Oc4cnc(N5CCOCC5)nc4)C3)cccc12 [Example 241, (S)-N-(3-(2-((1,5-dimethyl-1H-pyrazol-3-yl)amino)-5-methylpyrimidin-4-yl)-1H-indol-7-yl)-2-(3-((2-morpholinopyrimidin-5-yl)oxy)pyrrolidin-1-yl)acetamide] | 10 to 100 |
| Cc1cnc(Nc2cc(C)n(C)n2)nc1-c1c[nH]c2c(NC(=O)CN3CC[C@H](Oc4cnc(N5CCN(C)CC5)nc4)C3)cccc12 [Example 242, (S)-N-(3-(2-((1,5-dimethyl-1H-pyrazol-3-yl)amino)-5-methylpyrimidin-4-yl)-1H-indol-7-yl)-2-(3-((2-(4-methylpiperazin-1-yl)pyrimidin-5-yl)oxy)pyrrolidin-1-yl)acetamide] | 10 to 100 |
| Cc1cnc(Nc2cc(C)n(C)n2)nc1-c1c[nH]c2c(NC(=O)CN3CC[C@H](Oc4cncc(NC5CC5)n4)C3)cccc12 [Example 243, (S)-2-(3-((6-(cyclopropylamino)pyrazin-2-yl)oxy)pyrrolidin-1-yl)-N-(3-(2-((1,5-dimethyl-1H-pyrazol-3-yl)amino)-5-methylpyrimidin-4-yl)-1H-indol-7-yl)acetamide] | 10 to 100 |
